# Experimental data taken from paper PMC9696974 (Pharmaceutics, 2022).
# How the values were obtained:
# ct-DNA [1] = experiment: Thermal denaturation of ct-DNA (∆Tm); type: binding, calf; conditions: r = 0.1, pH 5.0, sodium cacodylate buffer, I = 50 mM
# Procedure: (§1) Experiments were conducted in an aqueous buffer solution (pH = 7.0 or pH= 5.0, I = 0.05 M, sodium cacodylate buffer). For the UV-Vis spectra were used Varian Cary 100 Bio spectrometer, for fluorescence spectra we used the Varian Cary Eclipse fluorimeter and for CD spectra we used the JASCO J815 spectropolarimeter, all conducted at 25.0 °C using appropriate quartz cuvettes (path length: 1 cm).
# (§2) Polynucleotides were purchased as noted: poly dAdT-poly dAdT, poly dGdC-poly dGdC, poly A-poly U (ds-RNA), (Sigma-Aldrich, Schnelldorf, Germany), calf thymus (ct)-DNA (Sigma-Aldrich, Schnelldorf, Germany) and dissolved in sodium cacodylate buffer, I = 0.05 M, pH = 7.0. The ct-DNA was sonicated and filtered through a 0.45 µm filter to obtain mostly short (ca. 100 base pairs) rod-like B-helical DNA fragments. The concentration of DNA or RNA was determined spectroscopically as the c(nucleobase) using producer-provided molar extinction coefficients.
# Thermal denaturation of ds-DNA, ds-RNA and their complexes with studied compounds was performed by monitoring the absorption change at 260 nm as a function of temperature. Tm values are the midpoints of the transition curves determined from the maximum of the first derivative and checked graphically by the tangent method. The ∆Tm values were calculated by subtracting the Tm of the free nucleic acid from the Tm of the complex. Every ∆Tm value here reported was the average of at least two measurements. The error in ∆Tm is ± 0.5 °C.
# ct-DNA [2] = experiment: Fluorimetric titration with ct-DNA, Scatchard equation; type: binding, calf; set-up: key: The changes were too small to allow an accurate calculation of the binding constant; conditions: I = 0.05 M
# Procedure: as §1, §2
# Fortunately, strong emission from the compounds studied allowed fluorimetric titrations to be performed at much lower concentrations of the dyes (c = 5 × 10^−8 M), thus preventing precipitation of non-methylated 1 or 2, and allowing for the collection of numerous data points at excess of DNA/RNA binding sites over c(dye). […] Intriguingly, mixed sequence ct-DNA caused emission quenching of 1M at an excess of dye over ct-DNA (r > 0.1), and such quenching could be attributed to aggregation of 1M along DNA, while at an excess of ct-DNA over dye (r << 0.1), emission increased. The emission of 2M was indiscriminately quenched by all ds-DNA/RNA (Figure 2d).
# (§3) Processing of fluorimetric titrations by means of the Scatchard equation [56, 57] yielded binding constants (Table 2). […] Affinities of 1 and 2 toward BSA were the same at both pH values, supporting the conclusion that neutral forms of 1 and 2 were bound.
# BSA = BSA (Bos taurus, UniProt P02769); experiment: Fluorimetric titration with BSA, Scatchard equation; type: binding, bovine; conditions: pH 7, sodium cacodylate buffer, I = 0.05 M; read-out: Binding constant logKs BSA (converted)
# Sequence of BSA (P02769 25-607): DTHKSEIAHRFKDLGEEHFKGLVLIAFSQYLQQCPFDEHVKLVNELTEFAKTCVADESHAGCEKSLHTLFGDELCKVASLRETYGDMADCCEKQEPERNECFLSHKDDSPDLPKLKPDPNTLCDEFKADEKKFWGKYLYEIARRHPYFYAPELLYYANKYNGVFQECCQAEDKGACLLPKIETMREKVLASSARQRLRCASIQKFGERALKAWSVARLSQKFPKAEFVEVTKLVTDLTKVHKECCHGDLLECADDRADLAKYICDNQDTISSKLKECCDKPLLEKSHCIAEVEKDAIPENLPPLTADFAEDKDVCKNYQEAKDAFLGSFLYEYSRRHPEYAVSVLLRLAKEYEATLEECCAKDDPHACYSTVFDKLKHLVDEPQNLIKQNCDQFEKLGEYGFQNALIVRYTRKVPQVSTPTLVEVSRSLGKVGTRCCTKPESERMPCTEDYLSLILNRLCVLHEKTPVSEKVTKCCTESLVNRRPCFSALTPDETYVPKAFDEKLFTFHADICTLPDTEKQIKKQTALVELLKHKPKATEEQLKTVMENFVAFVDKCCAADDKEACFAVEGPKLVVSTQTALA
# Procedure: as §1
# As the pharmacokinetic properties of small molecules often depend on a binding affinity toward transport proteins (such as serum albumin), we performed fluorimetric titrations with BSA. The emission of both 1M and 2M (Supplementary Information, Figures S15 and S16), was strongly quenched, with compound 2M showing a lower affinity in comparison to ds-DNA/RNA, while the affinity of 1M was similar to that towards ds-DNA/RNA (Table 2).
# as §3
# [3] = pKa from pH dependence of UV/vis spectrum; type: physicochemical; conditions: water (0.001 M HCl in miliQ water, titrated with NaOH), UV/vis spectra vs pH in water, c = 2.0 × 10^−5 M
# Solubility in water = type: physicochemical
# A549 cells = experiment: MTT cell viability assay, A549, with or without UV light; type: cell-based, human; conditions: A549
# Procedure: Cells. Commercially available from American Type Culture Collection (ATCC), human epithelial lung adenocarcinoma A549 (ATCC® CCL-185™) and human normal lung fibroblast WI-38 (ATCC® CCL-75™) were grown according to supplier’s conditions, namely in Dulbecco Modified Eagle’s Medium (DMEM, Sigma Aldrich, St. Louis, MO, USA) supplemented with 10% of fetal bovine serum (FBS, Sigma Aldrich, USA). Cells were incubated in the cell incubator (Thermo Fischer Scientific, Waltham, MA, USA) at 37 °C and 5% CO2 in a humidified atmosphere.
# Cell viability assay. In order to obtain a 10 mM stock solution chemical compounds (2M, 1, and 1M) were sterilely diluted in an appropriate volume of dimethyl sulfoxide solution (DMSO, Gram-Mol, Zagreb, Croatia). Solutions were kept in the dark and stored at 4 °C. The cytotoxic effects of each compound were assayed on A549 and WI-38 cells. […] Briefly, cells were seeded in 96-well tissue culture plates and 24 h later treated with 2M, 1, or 1M in the concentration range of 10–0.1 μM. Cells treated with the same dilutions of DMSO represented the control, while cells treated only with DMEM (10% FBS) represented the negative control. After 72 h, the media was removed, MTT solution was added into each well, and the plate was incubated (37 °C, 5% CO2) for 3 h. The resulting MTT-formazan products were dissolved using DMSO, and their absorbance at 600 nm was measured using a microplate reader.
# For determining the effect of UV exposure, cells were seeded on two plates and treated with working solutions of the respective compounds as previously described. Plates were incubated (37 °C, 5% CO2) for 90 min, allowing the compounds to enter the cells. Then, one plate was exposed to UV light (Luzchem reactor, 350 nm, 8 lamps, in total 8 W, dose 50.6 mWm^−2; ~18 cm lamp to cell-plate) for 5 min, 3 days in a row at the same time each day, while the other plate was left in the cell incubator in the dark and served as a control.
compound,measurement,setting,value
c1cc(-c2cc3ccc4cc(-c5ccncc5)cc5ccc(c2)c3c45)ccn1 [compound 2],∆Tm ct-DNA,ct-DNA [1],1.5 °C
same,Binding constant logKs ct-DNA,"ct-DNA [2]; pH 5, sodium cacodylate buffer",5.7
same,Binding constant logKs ct-DNA,"ct-DNA [2]; pH 7, sodium cacodylate buffer",b
same,Kd,BSA,5.01 µM
same,pKa,[3],< 4
same,Solubility in water,Solubility in water,poorly soluble in water
same,"Cytotoxic effect (cell survival, Figure S25)",A549 cells,no cytotoxic effect
